PubChem BioAssay (NCI)
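Five concentrations, 48 hours, 96-well plates. The concentration for 50% growth inhibition is given as GI50. TGI is the concentration that stops growth completely.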

Assays:
Test in all cases: NCI tumour cell line growth inhibition, 48 h
SK-MEL-28 melanoma = tested on: SK-MEL-28 melanoma
MDA-MB-468 breast = tested on: MDA-MB-468 breast
MCF7 breast = tested on: MCF7 breast
HL-60(TB) leukemia = tested on: HL-60(TB) leukemia
OVCAR-3 ovarian = tested on: OVCAR-3 ovarian
M14 melanoma = tested on: M14 melanoma
UO-31 renal = tested on: UO-31 renal
NCI/ADR-RES ovarian = tested on: NCI/ADR-RES ovarian
SF-295 CNS = tested on: SF-295 CNS
MDA-MB-231 breast = tested on: MDA-MB-231 breast
TK-10 renal = tested on: TK-10 renal
HS 578T breast = tested on: HS 578T breast
MALME-3M melanoma = tested on: MALME-3M melanoma
RPMI-8226 leukemia = tested on: RPMI-8226 leukemia
IGROV1 ovarian = tested on: IGROV1 ovarian
COLO 205 colon = tested on: COLO 205 colon
RXF 393 renal = tested on: RXF 393 renal
EKVX NSCLC = tested on: EKVX NSCLC
SK-MEL-2 melanoma = tested on: SK-MEL-2 melanoma
DU-145 prostate = tested on: DU-145 prostate
PC-3 prostate = tested on: PC-3 prostate
A498 renal = tested on: A498 renal
HCT-15 colon = tested on: HCT-15 colon
BT-549 breast = tested on: BT-549 breast
SNB-75 CNS = tested on: SNB-75 CNS
OVCAR-4 ovarian = tested on: OVCAR-4 ovarian
SW-620 colon = tested on: SW-620 colon
NCI-H522 lung = tested on: NCI-H522 lung
HOP-92 NSCLC = tested on: HOP-92 NSCLC
HCT-116 colon = tested on: HCT-116 colon
SF-268 CNS = tested on: SF-268 CNS
OVCAR-5 ovarian = tested on: OVCAR-5 ovarian
ACHN renal = tested on: ACHN renal
OVCAR-8 ovarian = tested on: OVCAR-8 ovarian
NCI-H226 lung = tested on: NCI-H226 lung
SNB-19 CNS = tested on: SNB-19 CNS
NCI-H23 lung = tested on: NCI-H23 lung
SN12C renal = tested on: SN12C renal
HCC-2998 colon = tested on: HCC-2998 colon
CCRF-CEM leukemia = tested on: CCRF-CEM leukemia
SK-MEL-5 melanoma = tested on: SK-MEL-5 melanoma
SF-539 CNS = tested on: SF-539 CNS
T-47D breast = tested on: T-47D breast
UACC-257 melanoma = tested on: UACC-257 melanoma
LOX IMVI melanoma = tested on: LOX IMVI melanoma
HOP-62 NSCLC = tested on: HOP-62 NSCLC
UACC-62 melanoma = tested on: UACC-62 melanoma
KM12 colon = tested on: KM12 colon
CAKI-1 renal = tested on: CAKI-1 renal
MOLT-4 leukemia = tested on: MOLT-4 leukemia
MDA-MB-435 = tested on: MDA-MB-435
HT29 colon = tested on: HT29 colon
NCI-H460 lung = tested on: NCI-H460 lung
A549 NSCLC = tested on: A549 NSCLC
U251 CNS = tested on: U251 CNS
SK-OV-3 ovarian = tested on: SK-OV-3 ovarian
K-562 leukemia = tested on: K-562 leukemia
786-0 renal = tested on: 786-0 renal

## COc1ccc(-c2nc3cc(C)ccc3n2CC(=O)N=Nc2c(O)[nH]c3ccc(Cl)cc23)cc1
SK-MEL-28 melanoma
  GI50: 1.82 µM
  TGI: 3.39 µM
MDA-MB-468 breast
  GI50: 2.29 µM
  TGI: 5.05 µM
MCF7 breast
  GI50: 2.69 µM
  TGI: 16.2 µM
HL-60(TB) leukemia
  GI50: 4.36 µM
  TGI: > 100 µM
OVCAR-3 ovarian
  GI50: 1.88 µM
  TGI: 3.8 µM
M14 melanoma
  GI50: 1.9 µM
  TGI: 4.02 µM
UO-31 renal
  GI50: 3.81 µM
  TGI: > 100 µM
NCI/ADR-RES ovarian
  GI50: 2.48 µM
  TGI: 7.16 µM
SF-295 CNS
  GI50: 2.49 µM
  TGI: 8 µM
MDA-MB-231 breast
  GI50: 1.96 µM
  TGI: 4.8 µM
TK-10 renal
  GI50: 3.43 µM
  TGI: > 100 µM
HS 578T breast
  GI50: 1.79 µM
  TGI: 6.03 µM
MALME-3M melanoma
  GI50: 2.12 µM
  TGI: 4.38 µM
RPMI-8226 leukemia
  GI50: 3.01 µM
  TGI: > 100 µM
IGROV1 ovarian
  GI50: 3.22 µM
  TGI: 24.5 µM
COLO 205 colon
  GI50: 3.15 µM
  TGI: 10.2 µM
RXF 393 renal
  GI50: 1.49 µM
  TGI: 3.9 µM
EKVX NSCLC
  GI50: 1.91 µM
  TGI: 5.61 µM
SK-MEL-2 melanoma
  GI50: 3.25 µM
  TGI: 18.6 µM
DU-145 prostate
  GI50: 3.18 µM
  TGI: 16.2 µM
PC-3 prostate
  GI50: 2.38 µM
  TGI: 8.6 µM
A498 renal
  GI50: 3.63 µM
  TGI: > 100 µM
HCT-15 colon
  GI50: 3.64 µM
  TGI: > 100 µM
BT-549 breast
  GI50: 1.97 µM
  TGI: 4.66 µM
SNB-75 CNS
  GI50: 0.532 µM
  TGI: 4.09 µM
OVCAR-4 ovarian
  GI50: 2.35 µM
  TGI: 6.5 µM
SW-620 colon
  GI50: 2.35 µM
  TGI: 6.59 µM
NCI-H522 lung
  GI50: 3.99 µM
  TGI: 22 µM
HOP-92 NSCLC
  GI50: 1.48 µM
  TGI: 4.63 µM
HCT-116 colon
  GI50: 1.83 µM
  TGI: 4 µM
SF-268 CNS
  GI50: 3 µM
  TGI: > 100 µM
OVCAR-5 ovarian
  GI50: 2.63 µM
  TGI: 10.1 µM
ACHN renal
  GI50: 2.1 µM
  TGI: 5.67 µM
OVCAR-8 ovarian
  GI50: 1.82 µM
  TGI: 3.77 µM
NCI-H226 lung
  GI50: 1.9 µM
  TGI: 5.18 µM
SNB-19 CNS
  GI50: 2.73 µM
  TGI: 9.29 µM
NCI-H23 lung
  GI50: 2.83 µM
  TGI: 11.3 µM
SN12C renal
  GI50: 2 µM
  TGI: 6.18 µM
HCC-2998 colon
  GI50: 3.16 µM
  TGI: > 100 µM
CCRF-CEM leukemia
  GI50: 3.07 µM
  TGI: 60.2 µM
SK-MEL-5 melanoma
  GI50: 2.07 µM
  TGI: 4.9 µM
SF-539 CNS
  GI50: 1.76 µM
  TGI: 3.41 µM
T-47D breast
  GI50: 2.73 µM
  TGI: > 100 µM
UACC-257 melanoma
  GI50: 2.1 µM
  TGI: 4.99 µM
LOX IMVI melanoma
  GI50: 1.78 µM
  TGI: 3.93 µM
HOP-62 NSCLC
  GI50: 2.13 µM
  TGI: 5.97 µM
UACC-62 melanoma
  GI50: 1.58 µM
  TGI: 3.4 µM
KM12 colon
  GI50: 3.01 µM
  TGI: 10 µM
CAKI-1 renal
  GI50: 2.35 µM
  TGI: 24.6 µM
MOLT-4 leukemia
  GI50: 2.43 µM
  TGI: > 100 µM
MDA-MB-435
  GI50: 2.29 µM
  TGI: 6.14 µM

## COc1ccc(-c2nc3cc(C)ccc3n2CC(=O)N=Nc2c(O)[nH]c3ccccc23)cc1
SK-MEL-28 melanoma
  GI50: 1.71 µM
  TGI: 3.26 µM
MDA-MB-468 breast
  GI50: 2.26 µM
  TGI: 5.87 µM
MCF7 breast
  GI50: 2.17 µM
  TGI: 5.7 µM
HL-60(TB) leukemia
  GI50: 5.5 µM
  TGI: 29.2 µM
OVCAR-3 ovarian
  GI50: 1.85 µM
  TGI: 4.14 µM
M14 melanoma
  GI50: 2.31 µM
  TGI: 5.4 µM
UO-31 renal
  GI50: 12.2 µM
  TGI: 24.8 µM
HT29 colon
  GI50: 1.82 µM
  TGI: 3.52 µM
NCI/ADR-RES ovarian
  GI50: 2.58 µM
  TGI: 6.66 µM
SF-295 CNS
  GI50: 5.4 µM
  TGI: 18.8 µM
MDA-MB-231 breast
  GI50: 2.06 µM
  TGI: 4.64 µM
TK-10 renal
  GI50: 10.5 µM
  TGI: 23.7 µM
HS 578T breast
  GI50: 2.27 µM
  TGI: 7.12 µM
MALME-3M melanoma
  GI50: 2.17 µM
  TGI: 4.42 µM
RPMI-8226 leukemia
  GI50: 6.69 µM
  TGI: 28.8 µM
NCI-H460 lung
  GI50: 2.17 µM
  TGI: 4.87 µM
IGROV1 ovarian
  GI50: 11.9 µM
  TGI: 25 µM
COLO 205 colon
  GI50: 3.73 µM
  TGI: 14 µM
RXF 393 renal
  GI50: 1.55 µM
  TGI: 3.71 µM
EKVX NSCLC
  GI50: 3.67 µM
  TGI: 15.5 µM
A549 NSCLC
  GI50: 1.88 µM
  TGI: 4.02 µM
SK-MEL-2 melanoma
  GI50: 10.3 µM
  TGI: 23.5 µM
DU-145 prostate
  GI50: 3.57 µM
  TGI: 14 µM
PC-3 prostate
  GI50: 2.42 µM
  TGI: 7.01 µM
A498 renal
  GI50: 11.8 µM
  TGI: 25.7 µM
HCT-15 colon
  GI50: 3.66 µM
  TGI: 14.5 µM
BT-549 breast
  GI50: 1.77 µM
  TGI: 4.98 µM
SNB-75 CNS
  GI50: 1.55 µM
  TGI: 4.33 µM
OVCAR-4 ovarian
  GI50: 2.17 µM
  TGI: 5.41 µM
SW-620 colon
  GI50: 3.03 µM
  TGI: 16.3 µM
NCI-H522 lung
  GI50: 4.68 µM
  TGI: 19.5 µM
HOP-92 NSCLC
  GI50: 1.94 µM
  TGI: 6.3 µM
U251 CNS
  GI50: 2.86 µM
  TGI: 9.2 µM
HCT-116 colon
  GI50: 1.86 µM
  TGI: 3.71 µM
SF-268 CNS
  GI50: 2.52 µM
  TGI: 9.61 µM
OVCAR-5 ovarian
  GI50: 2.4 µM
  TGI: 8.1 µM
ACHN renal
  GI50: 3.03 µM
  TGI: 11.9 µM
SK-OV-3 ovarian
  GI50: 2.32 µM
  TGI: 6.06 µM
K-562 leukemia
  GI50: 3.23 µM
  TGI: 43.5 µM
OVCAR-8 ovarian
  GI50: 2.19 µM
  TGI: 4.87 µM
NCI-H226 lung
  GI50: 1.88 µM
  TGI: 4.13 µM
SNB-19 CNS
  GI50: 4.11 µM
  TGI: 15.3 µM
NCI-H23 lung
  GI50: 4.15 µM
  TGI: 15.8 µM
SN12C renal
  GI50: 1.71 µM
  TGI: 3.83 µM
HCC-2998 colon
  GI50: 13.1 µM
  TGI: 26.1 µM
CCRF-CEM leukemia
  GI50: 3.54 µM
  TGI: 17.4 µM
SK-MEL-5 melanoma
  GI50: 2.61 µM
  TGI: 10.6 µM
SF-539 CNS
  GI50: 1.67 µM
  TGI: 3.08 µM
T-47D breast
  GI50: 3.15 µM
  TGI: 17.8 µM
UACC-257 melanoma
  GI50: 2.38 µM
  TGI: 6.76 µM
LOX IMVI melanoma
  GI50: 6.32 µM
  TGI: 20.8 µM
HOP-62 NSCLC
  GI50: 3.7 µM
  TGI: 18.2 µM
UACC-62 melanoma
  GI50: 2.14 µM
  TGI: 6.96 µM
KM12 colon
  GI50: 3.96 µM
  TGI: 16 µM
CAKI-1 renal
  GI50: 2.86 µM
  TGI: 11.6 µM
786-0 renal
  GI50: 12.7 µM
  TGI: 26 µM
MOLT-4 leukemia
  GI50: 3.65 µM
  TGI: 15.8 µM
MDA-MB-435
  GI50: 2.47 µM
  TGI: 6.24 µM
